Assays:
CTAT = target: T1, CTAT (Leishmania donovani, UniProt A0A3Q8INT3); test: UV absorption scan […]-500 nm, aldimine bond formation; assay type: binding; details: 4 mM PLP; 0.5 and 1 mg/ml protein; 25 °C; 30 min; covalent, internal aldimine at K286
T1 construct: gene LdCL_360030600; C-terminal 60 residues (180 bp) deleted; printed 389 aa (1,167 bp; end may be 388); two His-tags (N and C) from pET28a(+), about 45 kDa on gel, E. coli BL21, Ni-NTA

NTAT [1] = target: T2, NTAT (Leishmania donovani, UniProt A0A3Q8INT3); test: as above; assay type: binding; parameters: gene LdCL_360030600; N-terminal 60 residues (180 bp) deleted, starts T61, runs to native C-terminus; His-tag from pET28a(+), E. coli BL21, Ni-NTA; parent gene 1,347 bp; details: 4 mM PLP; 0.5 and 1 mg/ml protein; 25 °C; 30 min; covalent, internal aldimine at K286
NTAT [2] = target: T2, NTAT; parameters: gene LdCL_360030600; details: co-substrate sodium pyruvate 100 mM; 30 µM PLP; pH 8; 37 °C; tyrosine 0-7 mM; apparent

T2 sequence (A0A3Q8INT3 entry or part of it): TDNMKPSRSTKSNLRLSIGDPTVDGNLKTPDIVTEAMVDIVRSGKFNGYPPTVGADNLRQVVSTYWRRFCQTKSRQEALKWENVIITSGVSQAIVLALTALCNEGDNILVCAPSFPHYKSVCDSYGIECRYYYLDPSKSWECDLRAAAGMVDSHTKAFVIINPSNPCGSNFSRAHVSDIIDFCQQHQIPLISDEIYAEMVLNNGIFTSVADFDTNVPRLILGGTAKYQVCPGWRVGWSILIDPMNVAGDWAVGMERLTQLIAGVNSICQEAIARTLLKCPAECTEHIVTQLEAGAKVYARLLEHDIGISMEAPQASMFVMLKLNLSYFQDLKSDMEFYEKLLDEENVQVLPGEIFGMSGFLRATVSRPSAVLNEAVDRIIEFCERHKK
T1 sequence (A0A3Q8INT3 entry or part of it): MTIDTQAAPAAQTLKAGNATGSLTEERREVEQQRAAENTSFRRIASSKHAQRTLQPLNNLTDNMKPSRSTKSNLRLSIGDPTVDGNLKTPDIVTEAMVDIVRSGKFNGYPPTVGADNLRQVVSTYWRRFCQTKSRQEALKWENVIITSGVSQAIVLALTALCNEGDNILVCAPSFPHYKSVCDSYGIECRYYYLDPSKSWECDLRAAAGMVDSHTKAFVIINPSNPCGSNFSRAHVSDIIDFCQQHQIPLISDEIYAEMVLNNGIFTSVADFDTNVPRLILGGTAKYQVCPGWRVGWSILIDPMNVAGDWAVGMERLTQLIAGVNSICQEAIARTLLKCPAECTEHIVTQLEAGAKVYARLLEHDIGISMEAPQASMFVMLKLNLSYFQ

Compound | UV absorption scan 300-500 nm, aldimine bond formation (CTAT) | UV absorption scan 300-500 nm, aldimine bond formation (NTAT [1]) | Km (NTAT [2]) [mM]
Cc1ncc(COP(=O)(O)O)c(C=O)c1O [PLP] | In CTAT, the PLP binding was higher than NTAT | The increase in the concentration of NTAT or CTAT bound more PLP and formed aldimine bonds | –
N[C@@H](Cc1ccc(O)cc1)C(=O)O [tyrosine] | – | – | 3.47 ± 0.796

From paper PMC7385629 (Scientific Reports, 2020)
